These results are taken from patent US11142515B2, “Pyrazolyl-ureas as kinase inhibitors” (RESPIVERT LIMITED, priority 2014, dated 2021).

Some results are limits rather than exact numbers.

The target of one data set is T1, GSK 3α enzyme isoform (Homo sapiens, UniProt P49840).
T1 construct: purchased Life Technologies
Put plainly: GSK 3α enzyme inhibition (Z-LYTE FRET). Type of data set: biochemical. Conditions: Table 2A; read-out: IC50 Values for Enzyme Inhibition GSK3α. The procedure:
(§1) The enzyme inhibitory activities of compounds disclosed herein were determined by FRET using synthetic peptides labelled with both donor and acceptor fluorophores (Z-LYTE, Life Technologies, Paisley, UK).
The GSK3a protein (500 ng/mL, 2.5 μL) was incubated with the test compound (2.5 μL at either 40 μg/mL, 12 μg/mL, 4 μg/mL, 1.2 μg/mL, 0.4 μg/mL, 0.12 μg/mL, 0.04 μg/mL, 0.012 μg/mL, 0.004 μg/mL or 0.0012 μg/mL) for 2 h at RT. The FRET peptide (8 μM, 2.5 μL), which is a phosphorylation target for GSK3α, and ATP (40 μM, 2.5 μL) was then added to the enzyme/compound mixture and the resulting mixture incubated for 1 h at RT. Development reagent (protease, 5 μL) was added for 1 h prior to detection in a fluorescence microplate reader (EnVision, Perkin Elmer).
(§2) In all cases, the site-specific protease cleaves non-phosphorylated peptide only and eliminates the FRET signal. Phosphorylation levels of each reaction were calculated using the ratio of coumarin emission (donor) over fluorescein emission (acceptor), for which low ratios indicate high phosphorylation and high ratios indicate low phosphorylation levels.

For data set [1], the target named is T2, p38 MAPKα isoform (MAPK14) (Homo sapiens, UniProt Q16539).
T2 construct: purchased Life Technologies
T2 sequence (Q16539 whole entry, canonical isoform): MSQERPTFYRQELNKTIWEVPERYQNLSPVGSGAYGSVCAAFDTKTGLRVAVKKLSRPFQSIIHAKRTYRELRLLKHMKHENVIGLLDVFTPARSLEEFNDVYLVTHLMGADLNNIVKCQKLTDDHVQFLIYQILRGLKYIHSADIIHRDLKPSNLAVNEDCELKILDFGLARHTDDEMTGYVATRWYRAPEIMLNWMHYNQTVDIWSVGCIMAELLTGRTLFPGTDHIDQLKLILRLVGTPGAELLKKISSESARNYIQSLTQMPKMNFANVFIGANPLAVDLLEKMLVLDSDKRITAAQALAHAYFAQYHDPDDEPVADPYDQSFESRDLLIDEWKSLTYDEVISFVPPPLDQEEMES
Put plainly: p38 MAPKα enzyme inhibition (Z-LYTE FRET). In kind it is biochemical. Conditions: Table 2A; read-out: IC50 Values for Enzyme Inhibition p38 MAPKα. In short, it runs like this:
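Activity was measured indirectly as phosphorylation of a MAPKAP-K2-derived FRET peptide. Enzyme (added at 40 ng/mL) was preincubated 2 h at RT with compound (added solutions 40–0.0012 μg/mL).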

The next data set relates to d-U937 cells. The data set is described as follows: Cell viability: MTT assay in differentiated U937 cells. In kind it is cell-based, human. The note with it: 10 μg/mL. In short, it runs like this:
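Viability loss, calculated against 0.5% DMSO vehicle (gains reported negative), was measured by MTT reduction (1 h) and A550 after DMSO solubilisation. Compound exposure of d-U937 cells was 10 μg/mL final, for 24 h in 10% FCS or 4 h in 5% FCS RPMI1640.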
(Formazan colour is commonly taken as a measure of viable cells.)

The subject of data set [2] is IL-8 release in d-U937 cells. Put plainly: LPS-induced IL-8 release in d-U937 cells. The note with it: Homo sapiens, dU937, LPS 0.1 μg/mL 4 h. In kind it is cell-based. The method, then:
U937 cells, a human monocytic cell line, were differentiated into macrophage-type cells by incubation with PMA (100-200 ng/mL) for 48 to 72 h. Cells were pre-incubated with final […] concentrations of test compound for 2 h and were then stimulated with LPS (0.1 μg/mL; from E. coli: O111:B4, Sigma) for 4 h. The supernatant was collected for determination of TNFα and IL-8 concentrations by sandwich ELISA (Duo-set, R&D systems). […] The relative 50% effective concentration (REC50) was determined from the resultant concentration-response curve. The inhibition of IL-8 production was calculated at each concentration of test compound by comparison with vehicle control.

The target in another data set is T3, Hck (Homo sapiens, UniProt P08631).
T3 construct: purchased Life Technologies
T3 sequence (P08631 22-526): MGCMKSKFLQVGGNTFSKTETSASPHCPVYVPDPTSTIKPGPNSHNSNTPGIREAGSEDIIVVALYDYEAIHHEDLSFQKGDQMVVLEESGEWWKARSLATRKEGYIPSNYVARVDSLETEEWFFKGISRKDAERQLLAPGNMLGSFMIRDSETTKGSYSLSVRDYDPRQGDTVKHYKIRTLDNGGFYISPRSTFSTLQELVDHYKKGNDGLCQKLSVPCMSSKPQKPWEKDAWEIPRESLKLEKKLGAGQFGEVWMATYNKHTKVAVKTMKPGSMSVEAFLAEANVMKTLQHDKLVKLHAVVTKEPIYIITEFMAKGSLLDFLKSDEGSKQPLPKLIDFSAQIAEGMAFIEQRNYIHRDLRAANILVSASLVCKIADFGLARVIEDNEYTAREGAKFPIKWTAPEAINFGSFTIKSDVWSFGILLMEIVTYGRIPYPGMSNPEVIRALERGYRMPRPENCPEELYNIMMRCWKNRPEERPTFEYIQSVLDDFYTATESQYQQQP
Put plainly: Hck enzyme inhibition (Z-LYTE FRET). In kind it is biochemical. Conditions: Table 2A. The method, then: as §1
(§3) The relevant enzyme (1000 ng/mL, 1400 ng/mL or 2000 ng/mL respectively, 2.5 μL) was incubated with the test compound (either 40 μg/mL, 12 μg/mL, 4 μg/mL, 1.2 μg/mL, 0.4 μg/mL, 0.12 μg/mL, 0.04 μg/mL, 0.012 μg/mL, 0.004 μg/mL or 0.0012 μg/mL, 2.5 μL each) for 2 h at RT. The FRET peptides (8 μM, 2.5 μL), and appropriate ATP solutions (2.5 μL, 800 μM for c-Src, and 60 μM ATP for HCK and Syk) were then added to the enzyme/compound mixtures and incubated for 1 h at RT. Development reagent (protease, 5 μL) was added for 1 h prior to detection in a fluorescence microplate reader (EnVision, Perkin Elmer).
as §2

The next data set has as its target T4, Syk (Homo sapiens, UniProt P43405).
T4 construct: purchased Life Technologies
Put plainly: Syk enzyme inhibition (Z-LYTE FRET). Conditions: Table 2A. Type of data set: biochemical. The method, then:
as §1, §3, §2

One may read the IC50 as the midpoint of a concentration-inhibition curve.

T1 sequence (P49840 whole entry, canonical isoform): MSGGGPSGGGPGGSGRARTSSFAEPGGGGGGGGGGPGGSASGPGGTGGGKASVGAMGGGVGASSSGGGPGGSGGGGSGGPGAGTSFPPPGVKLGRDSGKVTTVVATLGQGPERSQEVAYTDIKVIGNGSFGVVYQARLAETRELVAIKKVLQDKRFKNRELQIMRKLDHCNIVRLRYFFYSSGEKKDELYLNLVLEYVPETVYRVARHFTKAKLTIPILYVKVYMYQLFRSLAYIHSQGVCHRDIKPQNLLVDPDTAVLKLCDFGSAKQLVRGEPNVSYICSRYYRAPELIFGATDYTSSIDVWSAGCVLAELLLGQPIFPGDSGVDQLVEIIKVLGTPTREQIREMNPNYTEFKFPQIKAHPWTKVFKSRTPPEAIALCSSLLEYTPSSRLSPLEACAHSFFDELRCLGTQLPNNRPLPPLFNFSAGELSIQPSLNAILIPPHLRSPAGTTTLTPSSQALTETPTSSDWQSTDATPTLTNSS

On to `Cc1cc(-n2nc(C(C)(C)C)cc2NC(=O)Nc2ccc(OCc3ccnc(Nc4cncc(C5CC5)n4)c3)c3ccccc23)cs1` [Example 27], for which the IC50 on GSK 3α enzyme isoform is 1030 nM; in data set [1] it was 17 nM; in data set [2] it was 4 nM; against Hck it was 13 nM; against Syk, 9160 nM. Moreover, the “MTT Assay Cell viability at time point indicated in d-U937 Cells, 4 h” value (from here on “MTT Assay Cell viability … in d-U937 Cells, 4 h”) in the data set with d-U937 cells is “− (−ve and +ve indicate the value is below and above, respectively, the no significant effect threshold defined as 30% inhibition at 10 μg/mL at the time point indicated)”. In addition, in the data set with d-U937 cells, the “MTT Assay Cell viability at time point indicated in d-U937 Cells, 24 h” value (from here on “MTT Assay Cell viability … 24 h”) is “+ (−ve and +ve indicate the value is below and above, respectively, the no significant effect threshold defined as 30% inhibition at 10 μg/mL at the time point indicated)”.
Consider `Cc1cccc(-n2nc(C(C)(C)C)cc2NC(=O)Nc2ccc(OCc3ccnc(Nc4cnccn4)c3)c3ccccc23)c1` [Example 40], for which the IC50 at GSK 3α enzyme isoform is 8780 nM; in data set [1] it was 11 nM; in data set [2], 11.7 nM; against Hck, 23 nM; against Syk it was > 16700 nM. In addition, the “MTT Assay Cell viability … in d-U937 Cells, 4 h” value in the data set with d-U937 cells was “− (−ve and +ve indicate the value is below and above, respectively, the no significant effect threshold defined as 30% inhibition at 10 μg/mL at the time point indicated)”. In addition, the “MTT Assay Cell viability … 24 h” value with d-U937 cells was “− (−ve and +ve indicate the value is below and above, respectively, the no significant effect threshold defined as 30% inhibition at 10 μg/mL at the time point indicated)”.
Consider `Cc1ccc(-n2nc(C(C)(C)C)cc2NC(=O)Nc2ccc(OCc3ccnc(Nc4cncc(C5CCC5)n4)c3)c3ccccc23)cc1` [Example 47], for which the IC50 at GSK 3α enzyme isoform worked out at 2800 nM; in data set [1], 87 nM; in data set [2] it was 15.6 nM; at Hck, 110 nM; against Syk, 4150 nM. In addition, the “MTT Assay Cell viability … in d-U937 Cells, 4 h” value in the data set on d-U937 cells is “− (−ve and +ve indicate the value is below and above, respectively, the no significant effect threshold defined as 30% inhibition at 10 μg/mL at the time point indicated)”. In the data set on d-U937 cells, the “MTT Assay Cell viability … 24 h” value was “− (−ve and +ve indicate the value is below and above, respectively, the no significant effect threshold defined as 30% inhibition at 10 μg/mL at the time point indicated)”.
With `Cc1ccc(-n2nc(C(C)(C)C)cc2NC(=O)Nc2ccc(OCc3ccnc(Nc4cnc(CO)cn4)c3)c3ccccc23)s1` [Example 26], the 50% inhibitory concentration (IC50) on GSK 3α enzyme isoform amounted to 469 nM; in data set [1], 7 nM; in data set [2] it was 14.6 nM; against Hck it was 20 nM; against Syk it was 1580 nM. The “MTT Assay Cell viability … in d-U937 Cells, 4 h” value in the data set on d-U937 cells was “− (−ve and +ve indicate the value is below and above, respectively, the no significant effect threshold defined as 30% inhibition at 10 μg/mL at the time point indicated)”. In addition, the “MTT Assay Cell viability … 24 h” value with d-U937 cells is “+ (−ve and +ve indicate the value is below and above, respectively, the no significant effect threshold defined as 30% inhibition at 10 μg/mL at the time point indicated)”.
With `Cc1ccc(-n2nc(C(C)(C)C)cc2NC(=O)Nc2ccc(OCc3ccnc(Nc4cncc(N(C)C)n4)c3)c3ccccc23)cc1` [Example 14], the IC50 at GSK 3α enzyme isoform is 3370 nM; in data set [1], 12 nM; in data set [2], 5.5 nM; at Hck, 6 nM; against Syk, > 15600 nM. For the same compound, in the data set on d-U937 cells, the “MTT Assay Cell viability … in d-U937 Cells, 4 h” value is “− (−ve and +ve indicate the value is below and above, respectively, the no significant effect threshold defined as 30% inhibition at 10 μg/mL at the time point indicated)”. Also, the “MTT Assay Cell viability … 24 h” value in the data set with d-U937 cells is “− (−ve and +ve indicate the value is below and above, respectively, the no significant effect threshold defined as 30% inhibition at 10 μg/mL at the time point indicated)”.
Consider `Cc1ccc(-n2nc(C(C)(C)C)cc2NC(=O)Nc2ccc(OCc3ccnc(Nc4cnc(C(=O)N(C)C)cn4)c3)c3ccccc23)cc1` [Example 9, 5-((4-(((4-(3-(3-(tert-Butyl)-1-(p-tolyl)-1H-pyrazol-5-yl)ureido)naphthalen-1-yl)oxy)methyl)pyridin-2-yl)amino)-N,N-dimethylpyrazine-2-carboxamide], for which the IC50 is 3320 nM at GSK 3α enzyme isoform; 134 nM in data set [1]; 8.8 nM in data set [2]; 1500 nM against Hck; > 14900 nM at Syk. The “MTT Assay Cell viability … in d-U937 Cells, 4 h” value in the data set on d-U937 cells was “− (−ve and +ve indicate the value is below and above, respectively, the no significant effect threshold defined as 30% inhibition at 10 μg/mL at the time point indicated)”. Also, in the data set with d-U937 cells, the “MTT Assay Cell viability … 24 h” value was “− (−ve and +ve indicate the value is below and above, respectively, the no significant effect threshold defined as 30% inhibition at 10 μg/mL at the time point indicated)”.
In the case of `CCc1cnc(Nc2cc(COc3ccc(NC(=O)Nc4cc(C(C)(C)C)nn4-c4ccc(C)cc4)c4ccccc34)ccn2)cn1` [Example 37], the IC50 at GSK 3α enzyme isoform was > 10000 nM; in data set [1], 24 nM; in data set [2] it was 19.3 nM; against Hck, 142 nM; against Syk it was > 16000 nM. The “MTT Assay Cell viability … in d-U937 Cells, 4 h” value with d-U937 cells is “− (−ve and +ve indicate the value is below and above, respectively, the no significant effect threshold defined as 30% inhibition at 10 μg/mL at the time point indicated)”. The “MTT Assay Cell viability … 24 h” value in the data set on d-U937 cells was “− (−ve and +ve indicate the value is below and above, respectively, the no significant effect threshold defined as 30% inhibition at 10 μg/mL at the time point indicated)”.
For `COc1ccc(-n2nc(C(C)(C)C)cc2NC(=O)Nc2ccc(OCc3ccnc(Nc4cnccn4)c3)c3ccccc23)cn1` [Example 12], the IC50 on GSK 3α enzyme isoform is > 16200 nM; in data set [1] it was 14 nM; in data set [2], 9.3 nM; on Hck it was 39 nM; at Syk, > 16200 nM. Further, the “MTT Assay Cell viability … in d-U937 Cells, 4 h” value in the data set on d-U937 cells is “− (−ve and +ve indicate the value is below and above, respectively, the no significant effect threshold defined as 30% inhibition at 10 μg/mL at the time point indicated)”. Moreover, the “MTT Assay Cell viability … 24 h” value in the data set with d-U937 cells is “− (−ve and +ve indicate the value is below and above, respectively, the no significant effect threshold defined as 30% inhibition at 10 μg/mL at the time point indicated)”.
Regarding `CC(C)(C)c1cc(NC(=O)Nc2ccc(OCc3ccnc(Nc4cnccn4)c3)c3ccccc23)n(-c2cccc(Cl)c2)n1` [Example 50], the IC50 on GSK 3α enzyme isoform amounted to 7080 nM; in data set [1], 22 nM; in data set [2], 30.3 nM; against Hck, 113 nM; at Syk, 5820 nM. Besides, the “MTT Assay Cell viability … in d-U937 Cells, 4 h” value in the data set on d-U937 cells was “− (−ve and +ve indicate the value is below and above, respectively, the no significant effect threshold defined as 30% inhibition at 10 μg/mL at the time point indicated)”. For the same compound, the “MTT Assay Cell viability … 24 h” value in the data set with d-U937 cells is “− (−ve and +ve indicate the value is below and above, respectively, the no significant effect threshold defined as 30% inhibition at 10 μg/mL at the time point indicated)”.
